# Measurements published in patent US20210078958A1, “QUINAZOLINE DERIVATIVE AND USE THEREOF” (MEDSHINE DISCOVERY INC., priority 2017, published 2021).
# Like-named read-outs stand apart in the source and are kept apart here.
# Key:
# HER4 (ErbB4) = HER4 (ErbB4) (Homo sapiens, UniProt Q15303); assay: in vitro enzyme activity, HER4 (ErbB4); type: biochemical; conditions: human ErbB4, [γ-33P]ATP, poly(Glu, Tyr) substrate
# Procedure: The purpose of this assay is to detect the in vitro inhibitory activity of compounds on HER1 (ErbB1), HER2 (ErbB2), and HER4 (ErbB4). The enzymes used in this assay are human ErbB1, ErbB2 and ErbB4. Eurofins Pharma Discovery Service provided the method for activity detection.
# Steps and Method of the Assay (96-Well Plate):
# A buffer solution of the test compounds in a dilution of 5-fold (5 μL), polypeptide substrate poly(Glu, Tyr) (4:1) (2.5 μL), ErbB (4-20 ng, 2.5 μL), MnCl2 (50 mM, 1.25 μL), dH2O (3.75 μL), and [γ-^33P]ATP (10 μL) were added, and incubated at 30° C. for 10 minutes. The reaction was terminated by adding 3% phosphoric acid. 10 μL of the sample was taken and transferred to Filtermate A. The filter disc was washed 3 times with 75 mM phosphoric acid and once with methanol. The filter disc was transferred to a sealed plastic bag and the scintillation mixture (4 mL) was added. The intensity of the emitted photon was detected by a scintillation luminescence counter. The CPM (times/min) of the enzyme sample was compared with the CPM of the internal control sample. The level of photon intensity reflected the degree of the tyrosine kinase activity.
# CYP2C9 = target: T1, CYP2C9 (Homo sapiens, UniProt P11712); assay: inhibition of CYP enzyme activity in human liver microsome, CYP2C9; type: in vitro ADME
# T1 construct: in the assay of CYP enzyme activity in human liver microsome; from tissue; host or cells: human liver microsome
# Source text: (§1) The results of the compounds disclosed herein and the reference compound Poziotinib in the assay of CYP enzyme activity in human liver microsome were shown in the following table (Table 8).
# [1] = tested on: subcutaneous xenograft tumor of human esophageal carcinoma OE21 cells; type: in vivo; conditions: 2/1.5 mg/kg; for Tumor volume (mm3) (Day 21): OE21 xenograft, Mean + SEM; for T/C (%) / TGI (%): day 21
# Procedure: Purpose of the assay: to evaluate the in vivo efficacy of the compounds to be tested on subcutaneous xenograft tumor of human esophageal carcinoma OE21 cells in a BALB/c nude mouse model.
# Animals of the assay: female BALB/c nude mice, 6-8 weeks old, weighing 17-23 grams; supplier: shanghai sippr bk laboratory animals Ltd.
# Human esophageal carcinoma OE21 cells were cultured in monolayer in vitro. The culture conditions were RPMI-1640 medium plus 10% fetal bovine serum, 100 U/mL penicillin, 100 U/mL streptomycin and 2 mM glutamine, 37° C., 5% CO2. The passaging was performed by conventional digestion with trypsin-EDTA twice a week. When the cell saturation was 80%-90%, the cells were collected, counted and inoculated.
# 0.1 ml […] OE21 cells (PBS) were inoculated subcutaneously on the right back of each mouse. When the average tumor volume reached 112 mm^3, administration to each group was started.
# The test compound was formulated into a 0.15 mg/mL to 0.3 mg/mL clear or suspension solution in the solvents of 10% NMP+10% ethylene glycol stearate+80% water. 6.4 Tumor measurement and assay index
# The assay index is to investigate whether tumor growth is inhibited, delayed or cured. Tumor diameter was measured twice a week with vernier caliper. The calculation formula of tumor volume is: V=0.5a×b^2, wherein a and b represent the long and short diameters of tumor, respectively.
# The antitumor efficacy of the compounds were evaluated by TGI (%) or relative tumor proliferation rate T/C (%). TGI (%) reflects the tumor growth inhibition rate. TGI (%) is calculated as follows: TGI (%)=[(1−(average tumor volume at the end of administration for a certain treatment group−average tumor volume at the beginning of administration for this treatment group))/(average tumor volume at the end of treatment for a solvent control group−average tumor volume at the beginning of administration for this solvent control group)]×100%.
# Relative tumor proliferation rate T/C (%): the calculation formula is as follows: T/C (%)=average tumor volume at the end of administration for a certain treatment group/average tumor volume at the end of treatment for the solvent control group×100%.
# Statistical analysis included the mean and standard error (SEM) of tumor volume at each time point in each group. One-way ANOVA was used for comparison among three or more groups. […] SPSS 17.0 was used for all data analysis. p<0.05 is considered a significant difference.
# CYP2D6 = target: T2, CYP2D6 (Homo sapiens, UniProt P10635); assay: inhibition of CYP enzyme activity in human liver microsome, CYP2D6; type: in vitro ADME
# T2 construct: in the assay of CYP enzyme activity in human liver microsome; from tissue; host or cells: human liver microsome
# Source text: as §1
# CYP1A2 = target: T3, CYP1A2 (Homo sapiens, UniProt P05177); assay: inhibition of CYP enzyme activity in human liver microsome, CYP1A2; type: in vitro ADME
# T3 construct: in the assay of CYP enzyme activity in human liver microsome; from tissue; host or cells: human liver microsome
# T3 sequence (P05177 1-516): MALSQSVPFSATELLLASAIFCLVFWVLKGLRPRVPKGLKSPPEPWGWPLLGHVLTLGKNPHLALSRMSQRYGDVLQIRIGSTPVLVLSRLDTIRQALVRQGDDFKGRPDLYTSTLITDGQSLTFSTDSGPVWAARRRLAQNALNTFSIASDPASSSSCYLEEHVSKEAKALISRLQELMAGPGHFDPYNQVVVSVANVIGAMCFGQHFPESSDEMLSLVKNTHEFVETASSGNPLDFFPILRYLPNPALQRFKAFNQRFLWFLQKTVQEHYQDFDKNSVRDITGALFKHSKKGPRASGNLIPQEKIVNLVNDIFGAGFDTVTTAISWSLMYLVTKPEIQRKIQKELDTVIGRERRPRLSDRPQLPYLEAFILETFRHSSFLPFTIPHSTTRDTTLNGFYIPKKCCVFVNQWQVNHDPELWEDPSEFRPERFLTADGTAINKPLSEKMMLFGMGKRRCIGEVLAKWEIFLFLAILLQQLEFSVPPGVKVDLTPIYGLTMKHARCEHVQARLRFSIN
# Source text: as §1
# T2 sequence (P10635 whole entry): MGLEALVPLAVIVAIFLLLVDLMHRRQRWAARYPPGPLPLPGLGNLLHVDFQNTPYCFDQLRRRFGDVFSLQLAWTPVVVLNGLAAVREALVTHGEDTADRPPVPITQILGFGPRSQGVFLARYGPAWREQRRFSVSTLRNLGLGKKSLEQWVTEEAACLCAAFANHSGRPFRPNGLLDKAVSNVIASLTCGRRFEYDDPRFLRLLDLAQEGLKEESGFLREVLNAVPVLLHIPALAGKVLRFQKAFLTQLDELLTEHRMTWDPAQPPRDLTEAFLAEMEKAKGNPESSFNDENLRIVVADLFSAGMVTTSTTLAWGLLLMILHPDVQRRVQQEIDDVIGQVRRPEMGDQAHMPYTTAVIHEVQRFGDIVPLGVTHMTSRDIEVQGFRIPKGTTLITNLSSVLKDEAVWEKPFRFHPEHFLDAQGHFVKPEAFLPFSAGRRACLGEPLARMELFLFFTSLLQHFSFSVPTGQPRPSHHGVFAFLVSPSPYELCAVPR
# T1 sequence (P11712 whole entry): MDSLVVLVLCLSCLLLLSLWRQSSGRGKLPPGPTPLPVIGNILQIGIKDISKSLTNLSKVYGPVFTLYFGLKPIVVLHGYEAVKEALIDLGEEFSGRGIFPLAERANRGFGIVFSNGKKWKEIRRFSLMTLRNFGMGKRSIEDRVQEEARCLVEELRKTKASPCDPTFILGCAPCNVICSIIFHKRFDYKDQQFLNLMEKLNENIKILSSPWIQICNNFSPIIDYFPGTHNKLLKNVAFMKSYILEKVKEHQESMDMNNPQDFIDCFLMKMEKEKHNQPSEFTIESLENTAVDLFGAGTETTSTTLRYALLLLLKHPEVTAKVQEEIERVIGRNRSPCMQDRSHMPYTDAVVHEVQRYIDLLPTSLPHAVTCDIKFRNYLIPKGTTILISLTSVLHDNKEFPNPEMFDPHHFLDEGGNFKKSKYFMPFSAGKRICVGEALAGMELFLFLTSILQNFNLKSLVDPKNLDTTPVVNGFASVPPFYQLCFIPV
# HER4 (ErbB4), sequence (Q15303 26-1308): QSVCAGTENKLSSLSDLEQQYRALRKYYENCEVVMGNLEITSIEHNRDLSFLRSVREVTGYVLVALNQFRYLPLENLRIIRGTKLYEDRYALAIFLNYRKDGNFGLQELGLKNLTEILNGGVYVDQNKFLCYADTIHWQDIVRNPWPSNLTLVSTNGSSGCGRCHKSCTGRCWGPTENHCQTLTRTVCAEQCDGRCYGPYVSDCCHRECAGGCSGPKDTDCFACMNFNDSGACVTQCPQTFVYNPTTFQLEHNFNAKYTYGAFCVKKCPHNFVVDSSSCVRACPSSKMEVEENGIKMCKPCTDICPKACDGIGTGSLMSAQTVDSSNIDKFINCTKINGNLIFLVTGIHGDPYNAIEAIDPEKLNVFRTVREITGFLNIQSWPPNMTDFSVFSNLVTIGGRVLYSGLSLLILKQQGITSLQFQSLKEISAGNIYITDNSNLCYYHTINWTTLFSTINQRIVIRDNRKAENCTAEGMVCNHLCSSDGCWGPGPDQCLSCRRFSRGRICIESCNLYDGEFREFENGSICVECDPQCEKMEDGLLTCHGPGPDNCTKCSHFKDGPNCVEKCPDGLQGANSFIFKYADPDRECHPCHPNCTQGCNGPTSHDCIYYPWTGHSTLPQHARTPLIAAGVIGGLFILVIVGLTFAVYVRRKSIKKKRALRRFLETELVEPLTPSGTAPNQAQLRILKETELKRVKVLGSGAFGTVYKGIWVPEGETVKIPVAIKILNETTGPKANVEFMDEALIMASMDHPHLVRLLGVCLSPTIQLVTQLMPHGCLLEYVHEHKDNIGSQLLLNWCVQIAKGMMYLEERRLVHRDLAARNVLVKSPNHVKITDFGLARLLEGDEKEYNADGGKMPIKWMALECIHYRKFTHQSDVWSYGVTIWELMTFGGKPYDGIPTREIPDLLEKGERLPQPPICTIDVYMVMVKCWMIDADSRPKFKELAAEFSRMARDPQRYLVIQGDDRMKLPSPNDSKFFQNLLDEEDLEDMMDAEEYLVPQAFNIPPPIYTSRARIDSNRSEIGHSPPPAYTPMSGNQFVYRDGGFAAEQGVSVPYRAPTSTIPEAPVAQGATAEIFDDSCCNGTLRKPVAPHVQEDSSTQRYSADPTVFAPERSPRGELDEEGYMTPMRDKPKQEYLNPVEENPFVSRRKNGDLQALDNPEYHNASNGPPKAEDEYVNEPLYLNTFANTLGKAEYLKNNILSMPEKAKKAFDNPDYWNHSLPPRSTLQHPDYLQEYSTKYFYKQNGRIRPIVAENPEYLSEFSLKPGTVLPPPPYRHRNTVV
smiles,measurement,setting,value
C=CC(=O)N1[C@@H]2CC[C@H]1C[C@H](Oc1cc3c(Nc4ccc(Cl)c(Cl)c4F)ncnc3cc1OC)C2 [Example 8],IC50,HER4 (ErbB4),0.0035 µM
C=CC(=O)N1[C@@H]2CC[C@H]1C[C@H](Nc1cc3c(Nc4ccc(Cl)c(Cl)c4F)ncnc3cc1OC)C2 [Example 38],IC50,CYP2C9,16 µM
same,"activity on CYP2C9, times better than that of the reference compound",CYP2C9; versus Poziotinib,2 times
same,IC50,HER4 (ErbB4),0.003 µM
same,Tumor volume (mm3) (Day 21),[1],55 ± 13 mm3
same,T/C (%),[1],5.82%
same,TGI (%),[1],106.65%
same,IC50,CYP2D6,6 µM
same,"activity on CYP2D6, times better than that of the reference compound",CYP2D6; versus Poziotinib,6 times
same,IC50,CYP1A2,> 50 µM
same,inhibition of CYP enzyme CYP1A2,CYP1A2; microsomes,no inhibitory activity
"C=CC(=O)N1CCC(Oc2cc3c(Nc4ccc(Cl)c(Cl)c4F)ncnc3cc2OC)CC1 [Poziotinib, reference compound]",IC50,CYP2C9,8 µM
same,Tumor volume (mm3) (Day 21),[1],57 ± 7 mm3
same,T/C (%),[1],6.05%
same,TGI (%),[1],106.65%
same,IC50,CYP2D6,1 µM
same,inhibition of CYP enzyme CYP1A2,CYP1A2; human liver microsome,no inhibitory activity
same,IC50,"CYP1A2; human liver microsome, read-out: inhibition of CYP enzyme CYP1A2",> 50 µM
